Data published in the NIST ThermoML archive (doi:10.1016/j.fluid.2005.05.015).
± gives the expanded uncertainty stated by the source.

Conditions: Crystal 1; visual observation

Normal melting temperature: 268.30 ± 1 °C
SMILES: CC[N+](C)(C)CCO.[Br-] [ethyl(2-hydroxyethyl)dimethylammonium bromide]
